# Experiments:
# Type in all cases: in vivo
# [1] = test system: Surinam grass (Brachiaria decumbens); assay: Test B pre/postemergence
# Procedure, shortened: (§1)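 Visual injury scored 0 (no effect) to 100 (complete control) versus untreated controls after 13 to 15 days in greenhouse. Treatments were pre- or postemergence sprays of surfactant-containing solvent formulations; postemergence plants at 1- to 4-leaf stage, 2 to 18 cm.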
# [2] = test system: barnyardgrass (Echinochloa crus-galli); assay: Test B pre/postemergence
# Procedure, shortened: as §1
# [3] = test system: cocklebur (Xanthium strumarium); assay: Test B pre/postemergence
# Procedure, shortened: as §1
# [4] = test system: corn (Zea mays); assay: Test B pre/postemergence; details: for Corn plant response rating: scale 0 to 100 (0 no effect, 100 complete control)
# Procedure, shortened: as §1
# [5] = test system: crabgrass (Digitaria sanguinalis); assay: Test B pre/postemergence
# Procedure, shortened: as §1
# [6] = test system: giant foxtail (Setaria faberii); assay: Test B pre/postemergence
# Procedure, shortened: as §1
# [7] = test system: lambsquarters (Chenopodium album); assay: Test B pre/postemergence
# Procedure, shortened: as §1
# [8] = test system: morningglory (Ipomoea coccinea); assay: Test B pre/postemergence
# Procedure, shortened: as §1
# [9] = test system: pigweed (Amaranthus retroflexus); assay: Test B pre/postemergence
# Procedure, shortened: as §1
# [10] = test system: velvetleaf (Abutilon theophrasti); assay: Test B pre/postemergence
# Procedure, shortened: as §1
# [11] = test system: wheat (Triticum aestivum); assay: Test B pre/postemergence
# Procedure, shortened: as §1
# [12] = test system: blackgrass (Alopecurus myosuroides); assay: Test B postemergence
# Procedure, shortened: as §1
# [13] = test system: wild oat (Avena fatua); assay: Test B postemergence
# Procedure, shortened: as §1
# [14] = test system: barnyardgrass (Echinochloa crus-galli); assay: Test B flooded paddy test; details: Flood, 1000 g ai/ha; scale 0 (no effect) to 100 (complete control)
# Procedure, shortened: (§2)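 Plants were grown to the 2-leaf stage before treatment, then kept in a greenhouse for 13 to 15 days. Injury was rated visually against untreated controls on a 0 to 100 scale, where 0 is no effect and 100 is complete control.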
# [15] = test system: duck salad (Heteranthera limosa); assay: Test B flooded paddy test; details: Flood, 1000 g ai/ha; scale 0 to 100
# Procedure, shortened: as §2
# [16] = test system: rice (Oryza sativa); assay: Test B flooded paddy test; details: Flood, 1000 g ai/ha; scale 0 to 100
# Procedure, shortened: as §2
# [17] = test system: umbrella sedge (Cyperus difformis); assay: Test B flooded paddy test; details: Flood, 1000 g ai/ha; scale 0 to 100
# Procedure, shortened: as §2
# [18] = Postemergence, 125 g ai/ha, scale 0 to 100 (0 no effect, 100 complete control)
# [19] = Postemergence, 500 g ai/ha, scale 0 to 100
# [20] = Preemergence, 125 g ai/ha, scale 0 to 100 (0 no effect, 100 complete control)
# [21] = Preemergence, 500 g ai/ha, scale 0 to 100 (0 no effect, 100 complete control)
# [22] = 125 g ai/ha, scale 0 to 100 (0 no effect, 100 complete control)
structure (smiles),measurement,setting,value
COC(=O)Cc1nc(C2CC2)nc(N)c1Br [Compound 13],Surinam Grass plant response rating,[1]; [18],0
same,"Plant response rating, Surinam Grass",[1]; [19],0
same,"Plant response rating, Surinam Grass",[1]; [20],0
same,Barnyardgrass plant response rating,[2]; [18],0
same,"Plant response rating, Barnyardgrass",[2]; [19],10
same,"Plant response rating, Barnyardgrass",[2]; [20],40
same,Barnyardgrass plant response rating,[2]; [21],80
same,Cocklebur plant response rating,[3]; [18],10
same,"Plant response rating, Cocklebur",[3]; [19],40
same,"Plant response rating, Cocklebur",[3]; [20],90
same,Cocklebur plant response rating,[3]; [21],100
same,Corn plant response rating,"[4]; Postemergence, 125 g ai/ha",0
same,"Plant response rating, Corn",[4]; [19],0
same,Corn plant response rating,"[4]; Preemergence, 500 g ai/ha",30
same,Crabgrass plant response rating,[5]; [18],20
same,"Plant response rating, Crabgrass",[5]; [19],30
same,"Plant response rating, Crabgrass",[5]; [20],50
same,Crabgrass plant response rating,[5]; [21],70
same,"Foxtail, Giant plant response rating",[6]; [18],10
same,"Plant response rating, Foxtail, Giant",[6]; [19],20
same,"Plant response rating, Foxtail, Giant",[6]; [20],20
same,"Foxtail, Giant plant response rating",[6]; [21],40
same,Lambsquarters plant response rating,[7]; [18],60
same,"Plant response rating, Lambsquarters",[7]; [19],70
same,"Plant response rating, Lambsquarters",[7]; [20],90
same,Lambsquarters plant response rating,[7]; [21],100
same,Morningglory plant response rating,[8]; [18],50
same,"Plant response rating, Morningglory",[8]; [19],70
same,"Plant response rating, Morningglory",[8]; [20],90
same,Morningglory plant response rating,[8]; [21],100
same,Pigweed plant response rating,[9]; [18],50
same,"Plant response rating, Pigweed",[9]; [19],70
same,"Plant response rating, Pigweed",[9]; [20],80
same,Pigweed plant response rating,[9]; [21],90
same,Velvetleaf plant response rating,[10]; [18],40
same,"Plant response rating, Velvetleaf",[10]; [19],50
same,"Plant response rating, Velvetleaf",[10]; [20],80
same,Velvetleaf plant response rating,[10]; [21],90
same,Wheat plant response rating,[11]; [18],0
same,"Plant response rating, Wheat",[11]; [19],0
same,"Plant response rating, Wheat",[11]; [20],40
same,Wheat plant response rating,[11]; [21],60
same,Blackgrass plant response rating,[12]; [22],10
same,"Plant response rating, Blackgrass","[12]; 500 g ai/ha, scale 0 to 100",20
same,"Oat, Wild plant response rating",[13]; [22],0
same,"Plant response rating, Oat, Wild","[13]; 500 g ai/ha, scale 0 to 100",0
same,"Plant response rating, Barnyardgrass",[14],0
same,"Plant response rating, Ducksalad",[15],0
same,"Plant response rating, Rice",[16],0
same,"Plant response rating, Sedge, Umbrella",[17],0

# Reference: US8802597B2, “Herbicidal pyrimidines” (E I du Pont de Nemours and Company, priority 2003, dated 2014)
